# Results from patent US20230416248A1, “COMPOUNDS AND USES THEREOF” (Foghorn Therapeutics Inc., priority 2020, published 2023).
# Test: Body weight and tolerability in mice engrafted with 92-1 tumors (Example 16)
# Format: in vivo
# Conditions: all treatments, once daily oral gavage, 3 weeks, FIG. 8C
# Description: Procedure: Nude mice (Envigo) were engrafted subcutaneously in the axillary region with 5×10^6 92-1 uveal melanoma cells in 50% Matrigel. Tumors were grown to a mean of ˜200 mm^3, at which point mice were grouped and dosing was initiated. Mice were dosed once daily by oral gavage with vehicle (20% 2-Hydroxypropyl-[…]) or increasing doses of Compound C. Tumor volumes and body weights were measured over the course of 3 weeks, and doses were adjusted by body weight to achieve the proper dose in terms of mg/kg. At this time, animals were sacrificed, and tumors were dissected and imaged.
structure (smiles),measurement,value
"C[C@@H]1CN(c2cccc(-c3csc(NC(=O)CNC(=O)c4ccn(C(C)(C)C)c4)n3)n2)C[C@H](C)O1 [Compound C, 1-(tert-butyl)-N-(2-((4-(6-(cis-2,6-dimethylmorpholino)pyridin-2-yl)thiazol-2-yl)amino)-2-oxoethyl)-1H-pyrrole-3-carboxamide]","tolerability, body weight",well tolerated with no body weight loss observed
